The results in this text go back to US20240368150A1 (Hoffmann-La Roche Inc., priority 2021, published 2024).

Each structure is given as a SMILES string. Like-named read-outs stand apart in the source and are kept apart here. Bounds are passed on as bounds.

Test [1] has as its system primary human T-cells. Description: Proliferation assay after 5 days (CellTiter-Glo, CD3 stimulation; PBS counter screen). To be noted: Homo sapiens, T-cell, 120 h, CD3 stimulation; for Emax: 5 days, normalized to reference compound A1 as stimulator control = 100%, DMSO neutral control, read-out: Emax proliferation (% activation); for EC50: primary human T-cells, CellTiter-Glo after 5 days, EC50 of fitted sigmoidal curve, read-out: Tcell Proliferation CD3 EC50. It is filed as cell-based. On the procedure:
Compounds are then added (see next section) to medium only plates.
Cells are assessed for proliferation 5 days later by measuring […] using CellTiterGlo (Promega).
After 5 days, for detection of ATP which is directly proportional to the number of cells present per well, the CellTiter-Glo® 2.0 Reagent is used. After visual control for toxicity or precipitations of the tested compounds, the plates are equilibrated to room temperature for 45 minutes. CellTiter-Glo® 2.0 Reagent is equilibrated to room temperature as well. After equilibration, an equal amount of CellTiter-Glo reagent is added to the cells (80 μl/well) with an electronic multichannel pipette. Plates are placed on a rocking platform for 15 minutes at room temperature. After incubation, the bottom of the plates is sealed with backing tape. Luminescence is measured with PHERAstar FSX (interval time 0.5 sec, gain 3000, focal height 15 mm) and exported as CSV file for analysis in Genedata screener.
Compounds which activate unstimulated cells (see IL2 measurements) or compounds which negatively affected viability were flagged.
A general note: Cellular ATP, detected with luciferase, serves as a proxy for viable cell number.

Test [2] deals with primary human T-cells.

As for `CC(C)(C)c1nnc(-c2cc3c(cc2F)S(=O)(=O)C[C@H](N)C(=O)N3Cc2ccc(S(C)(=O)=O)c(F)c2)o1` [Example 242, (3R)-3-amino-7-(5-tert-butyl-1,3,4-oxadiazol-2-yl)-8-fluoro-5-[(3-fluoro-4-methylsulfonyl-phenyl)methyl]-1,1-dioxo-2,3-dihydro-1λ^6,5-benzothiazepin-4-one], in the test with primary human T-cells [1], the Emax worked out at 92% and the EC50 was 3400 nM. In addition, the EC50 in the test with primary human T-cells [2] is 4800 nM.

As for `Cc1ccc(-c2nnc(-c3ccc4c(c3)N(Cc3ccc(Cl)cc3)C(=O)[C@@H](N)CS4(=O)=O)o2)cc1` [Example 377, (3R)-3-amino-5-[(4-chlorophenyl)methyl]-1,1-dioxo-7-[5-(p-tolyl)-1,3,4-oxadiazol-2-yl]-2,3-dihydro-1λ^6,5-benzothiazepin-4-one], in the test on primary human T-cells [1], the Emax was determined as 38% and the EC50 was 319 nM. The EC50 in the test with primary human T-cells [2] worked out at 1720 nM.

As to `COC(F)(c1nc(-c2cc3c(cc2F)S(=N)(=O)C[C@H](N)C(=O)N3Cc2ccc(Cl)cc2)no1)C(F)(F)F` (stereo partly drawn) [Example 515, (3R)-3-amino-5-[(4-chlorophenyl)methyl]-8-fluoro-1-imino-1-oxo-7-[5-(1,2,2,2-tetrafluoro-1-methoxy-ethyl)-1,2,4-oxadiazol-3-yl]-2,3-dihydro-1λ^6,5-benzothiazepin-4-one], in the test on primary human T-cells [1], the Emax was determined as 63% and the EC50 amounted to 4910 nM. The compound further showed an EC50 in the test on primary human T-cells [2] of 4070 nM.

`N[C@H]1CS(=O)(=O)c2cc(F)c(-c3nnc(C4CCCCC4(F)F)o3)cc2N(Cc2ccc(OC(F)(F)F)cc2)C1=O` (stereo partly drawn) [Example 53, (3R)-3-amino-7-[5-(2,2-difluorocyclohexyl)-1,3,4-oxadiazol-2-yl]-8-fluoro-1,1-dioxo-5-[[4-(trifluoromethoxy)phenyl]methyl]-2,3-dihydro-1λ^6,5-benzothiazepin-4-one]: in the test with primary human T-cells [1], the Emax is 243% and the EC50 was less than 162 nM. This compound also gave an EC50 with primary human T-cells [2] of less than 162 nM.

Consider `N[C@H]1CS(=O)(=O)c2cc(F)c(-c3nnc(C4CC5(C4)CC(F)(F)C5)o3)cc2N(Cc2ccc(Cl)cc2)C1=O` [Example 94, (3R)-3-amino-5-[(4-chlorophenyl)methyl]-7-[5-(2,2-difluorospiro[3.3]heptan-6-yl)-1,3,4-oxadiazol-2-yl]-8-fluoro-1,1-dioxo-2,3-dihydro-1λ^6,5-benzothiazepin-4-one], for which, in the test with primary human T-cells [1], the Emax is 85% and the EC50 worked out at 18.1 nM. For the same compound, the EC50 in the test on primary human T-cells [2] was determined as 161 nM.

As for `N[C@H]1CS(=O)(=O)c2cc(F)c(-c3nnc(C4(C(F)F)CNC4)o3)cc2N(Cc2ccc(Cl)cc2)C1=O` [Example 112, (3R)-3-amino-5-[(4-chlorophenyl)methyl]-7-[5-[3-(difluoromethyl)azetidin-3-yl]-1,3,4-oxadiazol-2-yl]-8-fluoro-1,1-dioxo-2,3-dihydro-1λ^6,5-benzothiazepin-4-one], in the test on primary human T-cells [1], the Emax is 124% and the EC50 stood at 1050 nM. This compound also registered an EC50 with primary human T-cells [2] of 3230 nM.

For `N[C@H]1CS(=O)(=O)c2cc(F)c(-c3nnc(NC4CC4)o3)cc2N(Cc2ccc(Cl)cc2)C1=O` [Example 481, (3R)-3-amino-5-[(4-chlorophenyl)methyl]-7-[5-(cyclopropylamino)-1,3,4-oxadiazol-2-yl]-8-fluoro-1,1-dioxo-2,3-dihydro-1λ^6,5-benzothiazepin-4-one], in the test with primary human T-cells [1], the Emax was found to be 89% and the EC50 was found to be 3050 nM. The EC50 with primary human T-cells [2] turned out to be 1880 nM.

With `N[C@H]1CS(=O)(=O)c2cc(F)c(-c3noc(NC4CCC4)n3)cc2N(Cc2ccc(Cl)cc2)C1=O` [Example 195, (3R)-3-amino-5-[(4-chlorophenyl)methyl]-7-[5-(cyclobutylamino)-1,2,4-oxadiazol-3-yl]-8-fluoro-1,1-dioxo-2,3-dihydro-1λ^6,5-benzothiazepin-4-one], the Emax in the test on primary human T-cells [1] came to 108%. Also, the EC50 in the test on primary human T-cells [1] was 106 nM; in the test on primary human T-cells [2], 167 nM.

As for `CC(CC(F)(F)F)Nc1nnc(-c2cc3c(cc2F)S(=O)(=O)C[C@H](N)C(=O)N3Cc2ccc(Cl)cc2)o1` (stereo partly drawn) [Example 506, (3R)-3-amino-5-[(4-chlorophenyl)methyl]-8-fluoro-1,1-dioxo-7-[5-[(3,3,3-trifluoro-1-methyl-propyl)amino]-1,3,4-oxadiazol-2-yl]-2,3-dihydro-1λ^6.5-benzothiazepin-4-one], in the test on primary human T-cells [1], the Emax was found to be 88% and the EC50 came out at 243 nM. The EC50 in the test on primary human T-cells [2] is 1320 nM.

Consider `CN1CCCC(n2nnc(-c3cc4c(cc3F)S(=O)(=O)C[C@H](N)C(=O)N4Cc3ccc(Cl)cc3)n2)C1` (stereo partly drawn) [Example 20, (3R)-3-amino-5-[(4-chlorophenyl)methyl]-8-fluoro-7-[2-(1-methyl-3-piperidyl)tetrazol-5-yl]-1,1-dioxo-2,3-dihydro-1λ^6,5-benzothiazepin-4-one], for which the Emax in the test with primary human T-cells [1] was 111%. Further, the EC50 in the test on primary human T-cells [1] amounted to 567 nM; in the test with primary human T-cells [2], 846 nM.

Consider `CS(=O)(=O)N1CC2CC(c3nnc(-c4cc5c(cc4F)S(=O)(=O)C[C@H](N)C(=O)N5Cc4ccc(Cl)cc4)o3)(C2)C1` [Example 174, (3R)-3-amino-5-[(4-chlorophenyl)methyl]-8-fluoro-7-[5-(3-methylsulfonyl-3-azabicyclo[3.1.1]heptan-1-yl)-1,3,4-oxadiazol-2-yl]-1,1-dioxo-2,3-dihydro-1λ^6,5-benzothiazepin-4-one], for which, in the test with primary human T-cells [1], the Emax came to 93% and the EC50 was 4460 nM. This compound gave an EC50 in the test with primary human T-cells [2] of 2190 nM.

With `N[C@H]1CS(=O)(=O)c2cc(F)c(-c3noc(N4CCOC5CC54)n3)cc2N(Cc2ccc(Cl)cc2)C1=O` (stereo partly drawn) [Example 192, (3R)-3-amino-5-[(4-chlorophenyl)methyl]-8-fluoro-7-[5-(2-oxa-5-azabicyclo[4.1.0]heptan-5-yl)-1,2,4-oxadiazol-3-yl]-1,1-dioxo-2,3-dihydro-1λ^6,5-benzothiazepin-4-one], in the test with primary human T-cells [1], the Emax came to 110% and the EC50 worked out at 100 nM. For the same compound, the EC50 in the test with primary human T-cells [2] is 125 nM.

As for `Cc1ccc(-c2nnc(-c3cc4c(cc3F)S(=O)(=O)C[C@H](N)C(=O)N4Cc3ccc(Cl)cc3)o2)cn1` [Example 133, (3R)-3-amino-5-[(4-chlorophenyl)methyl]-8-fluoro-7-[5-(6-methyl-3-pyridyl)-1,3,4-oxadiazol-2-yl]-1,1-dioxo-2,3-dihydro-1λ^6,5-benzothiazepin-4-one], the Emax in the test with primary human T-cells [1] is 144%. Besides, the results for the EC50 with primary human T-cells [1] and in the test with primary human T-cells [2] were 324 nM and 1190 nM, respectively.

For the compound `NC1CC2(C1)CC(c1nnc(-c3cc4c(cc3F)S(=O)(=O)C[C@H](N)C(=O)N4Cc3ccc(Cl)cc3)o1)C2` (stereo partly drawn) [Example 116, (3R)-3-amino-7-[5-(2-aminospiro[3.3]heptan-6-yl)-1,3,4-oxadiazol-2-yl]-5-[(4-chlorophenyl)methyl]-8-fluoro-1,1-dioxo-2,3-dihydro-1λ^6,5-benzothiazepin-4-one], in the test on primary human T-cells [1], the Emax stood at 84% and the EC50 is 4640 nM. The compound also showed an EC50 with primary human T-cells [2] of 7340 nM.

Consider `CC(C)(F)c1nc(-c2cc3c(cc2F)S(=O)(=O)C[C@H](N)C(=O)N3Cc2ccc(Cl)cc2)no1` [Example 47, (3R)-3-amino-5-[(4-chlorophenyl)methyl]-8-fluoro-7-[5-(1-fluoro-1-methyl-ethyl)-1,2,4-oxadiazol-3-yl]-1,1-dioxo-2,3-dihydro-1λ^6,5-benzothiazepin-4-one], for which, in the test with primary human T-cells [1], the Emax was found to be 142% and the EC50 is 561 nM. In the test with primary human T-cells [2], this compound showed an EC50 of 2860 nM.

Consider `N[C@H]1CS(=O)(=O)c2ccc(-c3nnc(-c4ccc(F)cc4)o3)cc2N(Cc2ccc(Cl)cc2)C1=O` [Example 375, (3R)-3-amino-5-[(4-chlorophenyl)methyl]-7-[5-(4-fluorophenyl)-1,3,4-oxadiazol-2-yl]-1,1-dioxo-2,3-dihydro-1λ^6,5-benzothiazepin-4-one], for which, in the test with primary human T-cells [1], the Emax came out at 62% and the EC50 stood at 817 nM. Further, the EC50 in the test with primary human T-cells [2] was 461 nM.

As to `CN(C)Cc1nc(-c2cc3c(cc2F)S(=O)(=O)C[C@H](N)C(=O)N3Cc2ccc(Cl)cc2)no1` [Example 325, (3R)-3-amino-5-[(4-chlorophenyl)methyl]-7-[5-[(dimethylamino)methyl]-1,2,4-oxadiazol-3-yl]-8-fluoro-1,1-dioxo-2,3-dihydro-1λ^6,5-benzothiazepin-4-one], in the test on primary human T-cells [1], the Emax came out at 96% and the EC50 stood at 869 nM. This compound also registered an EC50 in the test on primary human T-cells [2] of 455 nM.

`N[C@H]1CS(=O)(=O)c2cc(F)c(-c3nnc(C(F)(F)C(F)(F)F)o3)cc2N(Cc2ccc(Cl)cc2)C1=O` [Example 185, (3R)-3-amino-5-[(4-chlorophenyl)methyl]-8-fluoro-1,1-dioxo-7-[5-(1,1,2,2,2-pentafluoroethyl)-1,3,4-oxadiazol-2-yl]-2,3-dihydro-1λ^6,5-benzothiazepin-4-one]: in the test with primary human T-cells [1], the Emax came out at 13%. The EC50 is more than 10000 nM with primary human T-cells [1] and 4930 nM in the test with primary human T-cells [2].

For the compound `CS(=O)(=O)N1CCC(n2nnc(-c3cc4c(cc3F)S(=O)(=O)C[C@H](N)C(=O)N4Cc3ccc(Cl)cc3)n2)C1` (stereo partly drawn) [Example 19, (3R)-3-amino-5-[(4-chlorophenyl)methyl]-8-fluoro-7-[2-(1-methylsulfonylpyrrolidin-3-yl)tetrazol-5-yl]-1,1-dioxo-2,3-dihydro-1λ^6,5-benzothiazepin-4-one], in the test with primary human T-cells [1], the Emax came to 58% and the EC50 came out at 1290 nM. The EC50 in the test with primary human T-cells [2] amounted to 1170 nM.
